# Measurements: patent US20120029016A1, “Indoles Useful in the Treatment of Inflammation” (BIOLIPOX AB, priority 2008, published 2012)
# Legend:
# [1] = biological target: T1, Recombinant human LTC4 synthase (Homo sapiens, UniProt Q16873); assay: In vitro assay Method A: LTC4 synthase, LTA4 methyl ester to LTC4 methyl ester, HPLC; assay type: biochemical; conditions: total concentration of title compound 10 μM, read-out: % inh. of LTC4 synthase
# T1 construct: made in house; host or cells: Pichia pastoris ('Piccia pastoralis' [sic])
# T1 sequence (Q16873 1-150): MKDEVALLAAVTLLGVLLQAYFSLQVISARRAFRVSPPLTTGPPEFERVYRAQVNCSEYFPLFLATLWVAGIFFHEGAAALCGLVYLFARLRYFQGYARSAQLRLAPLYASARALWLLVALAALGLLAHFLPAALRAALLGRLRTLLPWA
# Experimental: In the assay, LTC4 synthase catalyses the reaction where the substrate LTA4 methyl ester is converted to the corresponding LTC4 methyl ester. Recombinant human LTC4 synthase is expressed in Piccia pastoralis and the purified enzyme is dissolved in 25 mM Tris-buffer pH 7.8 and stored at −20° C. The assay is performed in phosphate buffered saline (PBS) pH 7.4, supplemented with 5 mM glutathione (GSH). The reaction is terminated by addition of MeCN/MeOH/acetic acid (50/50/1). The assay is performed at rt in 96-well plates. Analysis of the formed LTC4 methyl ester is performed with reversed phase HPLC (Waters 2795 utilizing an Onyx Monolithic C18 column). The mobile phase consists of MeCN/MeOH/H2O (32.5/30/37.5) with 1% acetic acid, pH adjusted with NH3 to 5.6, and absorbance measured at 280 nm with a Waters 2487 UV-detector.
# (§1) The following is added chronologically to each well: • 1. 50 μL assay buffer, PBS with 5 mM GSH. • 2. 0.5 μL inhibitor in DMSO. • 3. 2 μL LTC4 synthase in PBS. The total protein concentration in this solution is 0.025 mg/mL. Incubation of the plate at rt for 10 min. • 4. 1-1.5 μL LTA4 methyl ester (final conc. 10 μM). Incubation of the plate at rt for 1 min. • 5. 50 μL stop solution. 80 μL of the incubation mixture is analysed with HPLC.
# [2] = tested on: cysteinyl leukotrienes concentration in the peritoneal lavage; assay: Mouse peritoneal inflammation model (zymosan ip), cysteinyl leukotrienes in peritoneal lavage by EIA; assay type: in vivo, Male BALB/c mice; conditions: 0.5 h, 5 min before zymosan, lavage 30 min after zymosan, read-out: %-inhibition of cysteinyl leukotrienes concentration vs vehicle treated mice; for inhibition in vivo at 10 mg/kg: 10 mg/kg ip; for inhibition in vivo at 3 mg/kg: 3 mg/kg ip
# Experimental: The in vivo efficacy of leukotriene biosynthesis inhibitors was assed by using a model of peritoneal inflammation. Male BALB/c mice (weighing 20-25 grams) received an intraperitoneal injection (ip) of 0.5 ml zymosan dissolved in phosphate buffer saline (PBS) (pH 7.5, 1 mg/mL). 5 Minutes before the zymosan injection compounds (1-10 mg/kg) or vehicle were administered ip (10 mL/kg). 30 min after the zymosan injection the mice were anaesthetized and the peritoneal cavity was flushed with 4 mL PBS. The peritoneal lavage was centrifuged at 6000 rcf for 5 minutes and the cysteinyl leukotrienes concentration in the supernatant was determined by EIA. The cysteinyl leukotrienes concentration in the peritoneal lavage from compound treated mice was compared to vehicle treated mice and the % inhibition was calculated.
# [3] = biological target: T1, Recombinant human LTC4 synthase; assay: In vitro assay Method B: LTC4 synthase, LTA4 to LTC4, HTRF detection; assay type: biochemical; conditions: total concentration of title compound 10 μM, read-out: % inh. of LTC4 synthase
# Experimental: In the assay, LTC4 synthase catalyses the reaction where the substrate LTA4 is converted to LTC4. Recombinant human LTC4 synthase is expressed in Piccia pastoralis and the purified enzyme is dissolved in 25 mM Tris-buffer pH 7.8 and stored at −20° C. The assay is performed in phosphate buffered saline (PBS) pH 7.4, supplemented with 5 mM glutathione (GSH). The assay is performed at rt in 384-well plates. Analysis of the formed LTC4 is performed using costume made homogenous time-resolved fluorescence (HTRF) detection (Cisbio).
# as §1, with “2 μl” for “2 μL”, “0.025 mg/ml.” for “0.025 mg/mL.”, “LTA4” for “LTA4 methyl ester”, “conc. 2.5” for “conc. 10”, “min. 10” for “min. • 5. 50 μL stop solution. 80”, “analysed using HTRF detection.” for “analysed with HPLC.”
inhibition at 10 µM [1] [%],inhibition at 10 µM [3] [%],Compound,inhibition in vivo at 10 mg/kg [2] [%],inhibition in vivo at 3 mg/kg [2] [%]
98,–,"CC(C)Oc1ccc(Oc2ccc3c(c2)c(C(=O)O)c(CC(=O)O)n3-c2ccc(OCc3ccc4ccccc4n3)cc2)cc1 [1:10, 2-Carboxymethyl-1-5-(4-isopropoxyphenoxy)-[4-(2-quinolinylmethoxy)-phenyl]indole-3-carboxylic acid]",–,–
89,–,"O=C(O)Cc1c(C(=O)O)c2cc(Oc3ccc(OC(F)(F)F)cc3)ccc2n1-c1ccc(OCc2ccccc2)cc1 [Example 2:1, 1-(4-Benzyloxyphenyl)-2-carboxymethyl-5-(4-trifluoromethoxyphenoxy)indole-3-carboxylic acid]",–,–
–,96,"CC(C)Oc1ccc(Oc2ccc3c(c2)c(C(=O)O)c(CC(=O)O)n3-c2ccc(Oc3ccc(Cl)cc3)cc2)cc1 [Example 3:3, 2-Carboxymethyl-1-[4-(4-chlorophenoxy)phenyl]-5-(4-isopropoxy-phenoxy)indole-3-carboxylic acid]",100,–
–,98,"CC(C)Oc1ccc(Oc2ccc3c(c2)c(C(=O)O)c(CC(=O)O)n3-c2ccc(OC3CCCC3)cc2)cc1 [Example 4:1, 2-Carboxymethyl-1-(4-cyclopentyloxyphenyl)-5-(4-isopropoxyphenoxy)-indole-3-carboxylic acid]",96,–
–,99,"O=C(O)Cc1c(C(=O)O)c2cc(Oc3ccc(OC(F)(F)F)cc3)ccc2n1-c1ccc(OC2CCCCC2)cc1 [Example 4:5, 2-Carboxymethyl-1-(4-cyclohexyloxyphenyl)-5-(4-trifluoromethoxyphenoxy)indole-3-carboxylic acid]",–,97
–,97,"CCCCCCCCOc1ccc(-n2c(CC(=O)O)c(C(=O)O)c3cc(Oc4ccc(OC(C)C)cc4)ccc32)cc1 [Example 5:2, 2-Carboxymethyl-1-(4-octyloxyphenyl)-5-(4-isopropoxyphenoxy)indole-3-carboxylic acid]",–,94
